Drawing on patent US7897627B2, “Heteroaryl derivatives as orexin receptor antagonists” (Hoffmann-La Roche Inc., priority 2007, dated 2011), this text covers Kb for 25 compounds.

As usually defined, the Kb is the equilibrium dissociation constant of an antagonist, usually derived from a functional assay.

The structures appear in SMILES notation.

For this assay, the target named is T1, human orexin-2 (hOX2) receptor (Homo sapiens, UniProt O43614).
T1 construct: expressed in transfected cells
T1 sequence (O43614 1-444): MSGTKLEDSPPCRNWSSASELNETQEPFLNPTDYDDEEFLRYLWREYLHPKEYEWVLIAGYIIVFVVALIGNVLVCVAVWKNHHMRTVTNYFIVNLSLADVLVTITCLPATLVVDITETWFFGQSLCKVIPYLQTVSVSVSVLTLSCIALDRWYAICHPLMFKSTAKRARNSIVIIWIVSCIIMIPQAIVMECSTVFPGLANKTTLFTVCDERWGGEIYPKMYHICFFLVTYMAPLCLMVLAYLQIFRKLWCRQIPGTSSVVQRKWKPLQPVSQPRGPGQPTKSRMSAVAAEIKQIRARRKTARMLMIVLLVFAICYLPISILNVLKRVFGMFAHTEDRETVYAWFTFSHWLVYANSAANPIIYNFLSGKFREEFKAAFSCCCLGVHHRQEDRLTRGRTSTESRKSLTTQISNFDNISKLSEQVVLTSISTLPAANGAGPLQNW
In words: Intracellular Ca2+ mobilization assay (FLIPR), CHO(dHFr-) cells expressing hOX2, orexin-A as agonist. It counts as cell-based. The settings on record: antagonist Kb=IC50/(1+[A]/EC50); orexin-A at EC80; CHO(dHFr-)-OX2R cells; antagonist applied 25 min before agonist. As for the experimental part:
Intracellular Ca^2+ Mobilization Assay
The Chinese Hamster Ovary (dHFr-) mutant cell line stably expressing human orexin-1 (hOX1) or human orexin-2 (hOX2) receptors were maintained in Dulbecco's Modified Eagle Medium (1×) with GlutaMax™1, 4500 mg/L D-Glucose and Sodium Pyruvate (Catalog No. 31966-021, Invitrogen, Carlsbad, Calif.), 5% dialyzed fetal calf serum (Catalog No. 26400-044), 100 μg/ml penicillin and 100 μg/ml streptomycin. The cells were seeded at 5×10^4 cells/well in the poly-D-lysine treated, 96-well, black/clear-bottomed plates (Catalog No. BD356640, BD Biosciences, Palo Alto, Calif.). 24 h later, the cells were loaded for 1 h at 37° C. with 4 μM Flou-4 acetoxymethyl ester (Catalog No. F-14202, Molecular Probes, Eugene, Oreg.) in FLIPR buffer (1×HBSS, 20 mM HEPES, 2.5 mM Probenecid). Hanks' Balanced Salt Solution (HBSS) (10×) (catalog No. 14065-049) and HEPES (1M) (catalog No. 15630-056) were purchased from Invitrogen, Carlsbad, Calif. Probenecid (250 mM) (catalog No. P8761) was from Sigma, Buchs, Switzerland. The cells were washed five times with FLIPR buffer to remove excess dye and intracellular calcium mobilization, [Ca^2−]i were measured using a Fluorometric Imaging Plate Reader (FLIPR-96, Molecular Devices, Menlo Park, Calif.) as described previously (Malherbe et al., Mol. Pharmacol., 64, 823-832, 2003). Orexin A (catalog No. 1455, Toris Cookson Ltd, Bristol, UK) was used as agonist. Orexin A ([…] stock solution in DMSO) was diluted in FLIPR buffer+0.1% BSA. The EC50 and EC80 values of orexin-A were measured daily from standard agonist concentration-response curves in CHO(dHFr-)-OX1R and -OX2R cell lines. All compounds were dissolved in 100% DMSO. Inhibition curves were determined by addition of 11 concentrations (0.0001-10 μM) of inhibitory compounds and using EC80 value of orexin-A as agonist (a concentration which gave 80% of max agonist response, determined daily). The antagonists were applied 25 min (incubation at 37° C.) before the application of the agonist. Responses were measured as peak increase in fluorescence minus basal, normalized to the maximal stimulatory effect induced by EC80 value of orexin-A or orexin-B. Inhibition curves were fitted according to the Hill equation: y=100/(1+(x/IC50)^nH), where nH=slope factor using Excel-fit 4 software (Microsoft).
Kb values were calculated according to the following equation Kb=IC50/(1+[A]/EC50) where A is the concentration of agonist added which is very close to agonist EC80 value, and IC50 and EC50 values were derived from the antagonist inhibition and orexin-A or B agonist curves, respectively.
In general terms: Calcium assays in cells follow changes in intracellular calcium, usually with a dye or a luminescent sensor.

As to `Cc1cccc(-c2ccccc2C(=O)N2CC[C@@H](Nc3nc4ccc(Cl)cc4o3)C2)c1` [Example 75, [(R)-3-(6-Chloro-benzooxazol-2-ylamino)-pyrrolidin-1-yl]-(3′-methyl-biphenyl-2-yl)-methanone], the Kb is 0.0163 µM.
Next, `Cc1nc(-c2ccccc2)c(C(=O)N2CC[C@@H](Nc3nc4ccc(Cl)cc4o3)C2)s1` [Example 78, [(R)-3-(6-Chloro-benzooxazol-2-ylamino)-pyrrolidin-1-yl]-(2-methyl-4-phenyl-thiazol-5-yl)-methanone]: 0.0145 µM; `O=C(c1c(Cl)cccc1C(F)(F)F)N1CC[C@@H](Nc2nc3ccc(Cl)cc3o2)C1` [Example 79, [(R)-3-(6-Chloro-benzooxazol-2-ylamino)-pyrrolidin-1-yl]-(2-chloro-6-trifluoromethyl-phenyl)-methanone]: 0.0173 µM.
Next, `O=C(c1ccccc1OC(F)(F)C(F)F)N1CC[C@@H](Nc2nc3ccc(Cl)cc3o2)C1` [Example 82, [(R)-3-(6-Chloro-benzooxazol-2-ylamino)-pyrrolidin-1-yl]-[2-(1,1,2,2-tetrafluoro-ethoxy)-phenyl]-methanone]: 0.0041 µM; `O=C(c1ccccc1-c1ccsc1)N1CC[C@@H](Nc2nc3ccc(Cl)cc3o2)C1` [Example 84, [(R)-3-(6-Chloro-benzooxazol-2-ylamino)-pyrrolidin-1-yl]-(2-thiophen-3-yl-phenyl)-methanone]: 0.0056 µM; `Cc1cc(C(=O)N2CC[C@@H](Nc3nc4ccc(Cl)cc4o3)C2)c(C(F)(F)F)o1` [Example 86, [(R)-3-(6-Chloro-benzooxazol-2-ylamino)-pyrrolidin-1-yl]-(5-methyl-2-trifluoromethyl-furan-3-yl)-methanone]: 0.0169 µM.
Turning to `O=C(c1c(F)cccc1N1CCCC1)N1CC[C@@H](Nc2nc3ccc(Cl)cc3o2)C1` [Example 90, [(R)-3-(6-Chloro-benzooxazol-2-ylamino)-pyrrolidin-1-yl]-(2-fluoro-6-pyrrolidin-1-yl-phenyl)-methanone], the Kb was 0.0186 µM.
Compound `COc1cccc(OC)c1C(=O)N1CC[C@@H](Nc2cnc3cc(F)c(F)cc3n2)C1` [Example 92, [(R)-3-(6,7-Difluoro-quinoxalin-2-ylamino)-pyrrolidin-1-yl]-(2,6-dimethoxy-phenyl)-methanone] registered a Kb of 0.0029 µM.
The compound `COc1cccc(OC)c1C(=O)N1CC[C@@H](Nc2nc3ccc(F)c(F)c3o2)C1` [Example 93, [(R)-3-(6,7-Difluoro-benzooxazol-2-ylamino)-pyrrolidin-1-yl]-(2,6-dimethoxy-phenyl)-methanone] came in with a Kb of 0.0164 µM.
`COc1cccc(OC)c1C(=O)N1CC[C@@H](Nc2nc3c(F)cccc3s2)C1` [Example 94, (2,6-Dimethoxy-phenyl)-[(R)-3-(4-fluoro-benzothiazol-2-ylamino)-pyrrolidin-1-yl]-methanone] yielded a Kb of 0.0091 µM.
As for `COc1cccc(OC)c1C(=O)N1CC[C@@H](Nc2nc3ccc(F)cc3o2)C1` [Example 95, (2,6-Dimethoxy-phenyl)-[(R)-3-(6-fluoro-benzooxazol-2-ylamino)-pyrrolidin-1-yl]-methanone], the figure is 0.0426 µM; as for `COc1cccc(OC)c1C(=O)N1CC[C@@H](Nc2nc3cccc(Cl)c3o2)C1` [Example 97, [(R)-3-(7-Chloro-benzooxazol-2-ylamino)-pyrrolidin-1-yl]-(2,6-dimethoxy-phenyl)-methanone], 0.0063 µM; as for `COc1cccc(OC)c1C(=O)N1CC[C@@H](Nc2nc3cccc(F)c3s2)C1` [Example 100, (2,6-Dimethoxy-phenyl)-[(R)-3-(7-fluoro-benzothiazol-2-ylamino)-pyrrolidin-1-yl]-methanone], 0.01 µM.
As for `COc1cccc(OC)c1C(=O)N1CC[C@@H](Nc2nc3c(C)cccc3o2)C1` [Example 106, (2,6-Dimethoxy-phenyl)-[(R)-3-(4-methyl-benzooxazol-2-ylamino)-pyrrolidin-1-yl]-methanone], the figure is 0.0129 µM.
Compound `COc1cccc(OC)c1C(=O)N1CC[C@@H](Nc2cnc3cc(F)ccc3n2)C1` [Example 110, (2,6-Dimethoxy-phenyl)-[(R)-3-(6-fluoro-quinoxalin-2-ylamino)-pyrrolidin-1-yl]-methanone] yielded an antagonist dissociation constant (Kb) of 0.0319 µM.
For `O=C(c1ccccc1C(F)(F)F)N1CC[C@@H](Nc2nc3ccc(F)cc3s2)C1` [Example 112, [(R)-3-(6-Fluoro-benzothiazol-2-ylamino)-pyrrolidin-1-yl]-(2-trifluoromethyl-phenyl)-methanone], the Kb was found to be 0.0344 µM.
The compound `O=C(c1ccccc1OC(F)(F)F)N1CC[C@@H](Nc2nc3ccc(F)cc3s2)C1` [Example 113, [(R)-3-(6-Fluoro-benzothiazol-2-ylamino)-pyrrolidin-1-yl]-(2-trifluoromethoxy-phenyl)-methanone] yielded a Kb of 0.0217 µM.
`O=C(c1ccccc1OC(F)(F)C(F)F)N1CC[C@@H](Nc2nc3ccc(F)cc3s2)C1` [Example 114, [(R)-3-(6-Fluoro-benzothiazol-2-ylamino)-pyrrolidin-1-yl]-[2-(1,1,2,2-tetrafluoro-ethoxy)-phenyl]-methanone]: the Kb is 0.002 µM.
In turn, `Cc1ccc(C(F)(F)F)c(C(=O)N2CC[C@@H](Nc3nc4ccc(F)cc4s3)C2)c1` [Example 115, [(R)-3-(6-Fluoro-benzothiazol-2-ylamino)-pyrrolidin-1-yl]-(5-methyl-2-trifluoromethyl-phenyl)-methanone] returned an antagonist dissociation constant (Kb) of 0.0068 µM.
In turn, `Cc1onc(-c2ccccc2)c1C(=O)N1CC[C@@H](Nc2nc3ccc(F)cc3s2)C1` [Example 116, [(R)-3-(6-Fluoro-benzothiazol-2-ylamino)-pyrrolidin-1-yl]-(5-methyl-3-phenyl-isoxazol-4-yl)-methanone] returned an antagonist equilibrium constant (Kb) of 0.0261 µM.
As for `Cc1noc(-c2ccccc2C(=O)N2CC[C@@H](Nc3nc4ccc(F)cc4s3)C2)n1` [Example 117, [(R)-3-(6-Fluoro-benzothiazol-2-ylamino)-pyrrolidin-1-yl]-[2-(3-methyl-[1,2,4]oxadiazol-5-yl)-phenyl]-methanone], the figure is 0.0197 µM; as for `Cc1ccc(Cl)c(C(=O)N2CC[C@@H](Nc3nc4ccc(F)cc4s3)C2)c1` [Example 118, (2-Chloro-5-methyl-phenyl)-[(R)-3-(6-fluoro-benzothiazol-2-ylamino)-pyrrolidin-1-yl]-methanone], 0.039 µM; as for `Cc1nc(C(=O)N2CC[C@@H](Nc3nc4ccc(F)cc4s3)C2)c(-c2ccccc2)s1` [Example 120, [(R)-3-(6-Fluoro-benzothiazol-2-ylamino)-pyrrolidin-1-yl]-(2-methyl-5-phenyl-thiazol-4-yl)-methanone], 0.0188 µM.
As for `O=C(c1ccccc1OC(F)(F)F)N1CC[C@@H](Nc2nc3c(F)cccc3s2)C1` [Example 122, [(R)-3-(4-Fluoro-benzothiazol-2-ylamino)-pyrrolidin-1-yl]-(2-trifluoromethoxy-phenyl)-methanone], the figure is 0.0193 µM.
With `O=C(c1ccccc1OC(F)(F)C(F)F)N1CC[C@@H](Nc2nc3c(F)cccc3s2)C1` [Example 123, [(R)-3-(4-Fluoro-benzothiazol-2-ylamino)-pyrrolidin-1-yl]-[2-(1,1,2,2-tetrafluoro-ethoxy)-phenyl]-methanone], the Kb came out at 0.0032 µM.
